Literature values as cited in patent US10463585B2, “Cosmetic compositions” (The Procter & Gamble Company, priority 2017, dated 2019).

System: tyrosinase expression
Conditions: in vivo; background statement

Substance: PKEK (Artificial sequence is synthesized)
- Tyrosinase expression: reduce tyrosinase expression
